From patent publication US6767552B2, “Adhesive treatment for oral fungal infection” (Closure Medical Corporation, priority 2001, dated 2004)

Experiment: Observation of the haloprogin / 2-octyl cyanoacrylate monomer composition in a sealed glass vial
Type: physicochemical
Settings: 30 mg haloprogin in 2 mL 2-octyl cyanoacrylate monomer
Description: A 2-octyl cyanoacrylate monomer composition is prepared by adding 30 mg of haloprogin, an anti-fungal agent, to 2 mL of 2-octyl cyanoacrylate monomer. The mixture is sealed in a glass vial and stirred. The characteristics of the composition are observed at about one minute after preparation and later at least twenty-four hours after preparation.

premature polymerization of the monomer (at least twenty-four hours after preparation): does not cause premature polymerization
solubility of haloprogin in the monomer (observed about one minute and at least twenty-four hours after preparation): soluble
Compound: Clc1cc(Cl)c(OCC#CI)cc1Cl [haloprogin]
